Measurements from US7579356B2, “Thia-tetraazaacenaphthylene kinase inhibitors” (Janssen Pharmaceutica NV, priority 2005, dated 2009).

Legend:
EGFR = biological target: T1, EGFR (Homo sapiens, UniProt P00533); test: EGFR Kinase Assay; assay type: biochemical; conditions: for IC50: GST-EGFR, ATP 5 μM; for inhibition at 2 µM: test concentration of 2 μM, compounds without an IC50, read-out: EGFR inhibition in percent
T1 construct: The intracellular portion of EGFR started at nucleotide 2189 (corresponding to amino acid 667) and ended at the termination codon; made in house; host or cells: Sf9 insect cells (baculovirus)
T1 sequence (P00533 669-1210 limits assumed): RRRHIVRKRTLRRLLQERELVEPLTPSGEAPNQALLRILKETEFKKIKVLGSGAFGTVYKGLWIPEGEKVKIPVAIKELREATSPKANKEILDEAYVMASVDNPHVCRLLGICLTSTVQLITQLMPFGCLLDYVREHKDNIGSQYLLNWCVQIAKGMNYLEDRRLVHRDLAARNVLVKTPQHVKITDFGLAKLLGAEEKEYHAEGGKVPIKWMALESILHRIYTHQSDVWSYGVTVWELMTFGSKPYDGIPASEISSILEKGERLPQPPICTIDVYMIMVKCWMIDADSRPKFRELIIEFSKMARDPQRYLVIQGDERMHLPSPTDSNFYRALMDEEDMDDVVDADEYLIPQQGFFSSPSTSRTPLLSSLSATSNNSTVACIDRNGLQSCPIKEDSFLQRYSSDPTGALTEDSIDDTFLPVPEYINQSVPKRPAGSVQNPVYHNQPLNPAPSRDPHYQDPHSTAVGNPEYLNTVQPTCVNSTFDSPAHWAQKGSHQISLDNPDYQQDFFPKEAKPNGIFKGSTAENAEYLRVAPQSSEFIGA
In short: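 GST-fused human EGFR intracellular domain (from aa 667), Sf9-expressed, phosphorylated biotinylated polyGluTyr with 5 μM ATP plus γ-33P ATP in Tris pH 8.0, MgCl2, vanadate, 1 mM DTT, 1 h at 30 °C. Streptavidin Flashplate scintillation read; triplicate 16-point half-log series from 200 uM; IC50 from % inhibition vs log concentration, else % inhibition at 2 μM.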

HER-2 = biological target: T2, HER-2 (Homo sapiens, UniProt P04626); test: HER-2 Kinase Assay; assay type: biochemical; conditions: value in parentheses
T2 construct: His6 with thrombin site (N); purchased Proqinase (Freiburg, Germany)
T2 sequence (P04626 679-1255): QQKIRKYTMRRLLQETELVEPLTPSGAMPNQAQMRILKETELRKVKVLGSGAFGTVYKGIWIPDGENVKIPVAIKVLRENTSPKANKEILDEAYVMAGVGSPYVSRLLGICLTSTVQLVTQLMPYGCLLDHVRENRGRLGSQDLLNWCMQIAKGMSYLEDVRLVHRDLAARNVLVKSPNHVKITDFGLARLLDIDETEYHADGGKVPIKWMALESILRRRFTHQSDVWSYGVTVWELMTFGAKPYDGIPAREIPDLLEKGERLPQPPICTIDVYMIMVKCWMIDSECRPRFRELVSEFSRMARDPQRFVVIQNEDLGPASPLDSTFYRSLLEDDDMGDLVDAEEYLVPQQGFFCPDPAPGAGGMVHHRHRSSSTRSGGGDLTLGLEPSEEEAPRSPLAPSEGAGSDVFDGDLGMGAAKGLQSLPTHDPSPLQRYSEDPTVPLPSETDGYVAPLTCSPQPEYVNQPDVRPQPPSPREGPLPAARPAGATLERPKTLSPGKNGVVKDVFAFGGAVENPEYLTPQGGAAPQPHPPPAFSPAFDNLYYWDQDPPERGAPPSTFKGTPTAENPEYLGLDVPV
Procedure: The HER-2 kinase used was purified at Proqinase (Freiburg, Germany) from a construct that consisted of a fusion of GST (Glutathione-S-Transferase), HIS6-Thrombin and the nucleotides encoding amino acids 679 to 1255 of HER-2 (Accession Number M11730).
A mixture of a 10× kinase reaction buffer (600 mM Hepes at pH 7.5, 30 mM Magnesium Chloride, 0.03 mM Sodium Vanadate and 500 μg/mL PEG 20,000), DTT (1.2 mM final from a 10 mM stock), APT (1 μM from a 10 mM stock), biotinylated polyGluTyr (1.5 ng/μL final from stock of 1 μg/μL) prepared by Upstate Biotechnologies, Lake Placid, N.Y.), Manganese Chloride (3 mM final from a 1 M stock), γ-^33P-ATP (10 μCl/μL stock) and water (70 μL/well) was added to each well of a Streptavidin Flashplate (Cat. # SMP103, NEN, Boston, Mass.).
Test compound stock (1 μL) was added to the appropriate wells. Diluted GSTHER2 kinase (6.7 ng/μL diluted into 50 mM Tris-HCl at pH 8.0 and 0.1% bovine serum albumin) (30 μL) was added (total volume of 200 ng/well) to initiate the reactions.
The reaction plates were incubated at 30° C. for 1 hr. The reaction was terminated by aspirating the reaction mixture from the plate wells and washing the wells three times with a 1×PBS stop buffer (300 μL) and 100 mM EDTA. After the final wash, the same stop buffer (200 μL) was again added to the wells. The plates were then sealed and read on the TopCount scintillation counter.
The Her-2 inhibition values were derived according to the procedure described in Example 164 and are shown as percent in Table 4 at a test concentration of 1 μM. For those compounds with an IC50, the IC50 value in μM is shown in parentheses. For compounds with multiple test values, each value represents a separate assay result.

SMILES	IC50 (EGFR) [nM]	IC50 (HER-2) [nM]	inhibition at 2 µM (EGFR) [%]
O=C(Nc1ccc(CN2CCCCC2)cc1)c1sc2ncnc3c2c1NC(=O)N3c1ccc(Br)cc1 [Cpd 195, 5-(4-bromo-phenyl)-4-oxo-4,5-dihydro-3H-1-thia-3,5,6,8-tetraaza-acenaphthylene-2-carboxylic acid (4-piperidin-1-ylmethyl-phenyl)-amide]	97	94	
COc1cc(NC(=O)c2sc3ncnc4c3c2NC(=O)N4c2cccc(Oc3ccccc3)c2)ccc1CN1CCOCC1 [Cpd 200, 4-oxo-5-(3-phenoxy-phenyl)-4,5-dihydro-3H-1-thia-3,5,6,8-tetraaza-acenaphthylene-2-carboxylic acid (3-methoxy-4-morpholin-4-ylmethyl-phenyl)-amide]	89	130	
COc1cc(NC(=O)c2sc3ncnc4c3c2NC(=O)N4c2ccc(Br)cc2)ccc1CN1CCOCC1 [Cpd 201, 5-(4-bromo-phenyl)-4-oxo-4,5-dihydro-3H-1-thia-3,5,6,8-tetraaza-acenaphthylene-2-carboxylic acid (3-methoxy-4-morpholin-4-ylmethyl-phenyl)-amide]	106	92	
COc1ccc(C(=O)c2sc3ncnc4c3c2NC(=O)N4c2ccc(Oc3ccccc3)cc2)cc1OC [Cpd 202]		> 100000	31
O=C(Nc1ccc(CN2CCOCC2)c(F)c1)c1sc2ncnc3c2c1NC(=O)N3c1ccc(Oc2ccccc2)cc1 [Cpd 203, 4-oxo-5-(4-phenoxy-phenyl)-4,5-dihydro-3H-1-thia-3,5,6,8-tetraaza-acenaphthylene-2-carboxylic acid (3-fluoro-4-morpholin-4-ylmethyl-phenyl)-amide]	35	60	
CCOC(=O)C=Cc1ccc(NC(=O)c2sc3ncnc4c3c2NC(=O)N4c2ccc3nc(Cc4cccc(F)c4)[nH]c3c2)cc1 [Cpd 206, 3-[4-({5-[2-(3-fluoro-benzyl)-3H-benzoimidazol-5-yl]-4-oxo-4,5-dihydro-3H-1-thia-3,5,6,8-tetraaza-acenaphthylene-2-carbonyl}-amino)-phenyl]-acrylic acid ethyl ester]		~100000	12
CCOc1cc(NC(=O)c2sc3ncnc4c3c2NC(=O)N4c2ccc(Oc3ccccc3)cc2)ccc1CN1CCOCC1 [Cpd 207, 4-oxo-5-(4-phenoxy-phenyl)-4,5-dihydro-3H-1-thia-3,5,6,8-tetraaza-acenaphthylene-2-carboxylic acid (3-ethoxy-4-morpholin-4-ylmethyl-phenyl)-amide]	16	15	
O=C(Nc1ccc(CN2CCOCC2)cc1)c1sc2ncnc3c2c1NC(=O)N3c1ccc(Oc2cccnc2)c(Cl)c1 [Cpd 208, 5-[3-chloro-4-(pyridin-3-yloxy)-phenyl]-4-oxo-4,5-dihydro-3H-1-thia-3,5,6,8-tetraaza-acenaphthylene-2-carboxylic acid (4-morpholin-4-ylmethyl-phenyl)-amide]	133	57	
CN(C)CCCNC(=O)c1sc2ncnc3c2c1NC(=O)N3c1ccc(Sc2ccccc2)cc1 [Cpd 212, 4-oxo-5-(4-phenylsulfanyl-phenyl)-4,5-dihydro-3H-1-thia-3,5,6,8-tetraaza-acenaphthylene-2-carboxylic acid (3-dimethylamino-propyl)-amide]	36	168	
O=C(c1sc2ncnc3c2c1NC(=O)N3c1ccc(Oc2ccccc2)cc1)N1CCN(CCN2CCOCC2)CC1 [Cpd 213, 2-[4-(2-morpholin-4-yl-ethyl)-piperazine-1-carbonyl]-5-(4-phenoxy-phenyl)-3H,5H-1-thia-3,5,6,8-tetraaza-acenaphthylen-4-one]		> 10000	48
CN1CCN(C(=O)c2sc3ncnc4c3c2NC(=O)N4c2ccc(Oc3ccccc3)cc2)CC1 [Cpd 216, 2-(4-methyl-piperazine-1-carbonyl)-5-(4-phenoxy-phenyl)-3H,5H-1-thia-3,5,6,8-tetraaza-acenaphthylen-4-one]	780	~100000	

Second part, the compound after the results:

IC50 (EGFR) [nM]	IC50 (HER-2) [nM]	inhibition at 2 µM (EGFR) [%]	SMILES
704	> 1000		O=C(Nc1ccc(CN2CCOCC2)cc1)c1sc2ncnc3c2c1NC(=O)N3c1ccc2nc(Cc3cccc(F)c3)[nH]c2c1 [Cpd 193, 5-[2-(3-fluoro-benzyl)-3H-benzoimidazol-5-yl]-4-oxo-4,5-dihydro-3H-1-thia-3,5,6,8-tetraaza-acenaphthylene-2-carboxylic acid (4-morpholin-4-ylmethyl-phenyl)-amide]
	5770	31	CN1CCC(NC(=O)c2sc3ncnc4c3c2NC(=O)N4c2ccc3nc(Cc4cccc(F)c4)[nH]c3c2)CC1 [Cpd 194, 5-[2-(3-fluoro-benzyl)-3H-benzoimidazol-5-yl]-4-oxo-4,5-dihydro-3H-1-thia-3,5,6,8-tetraaza-acenaphthylene-2-carboxylic acid (1-methyl-piperidin-4-yl)-amide]
206	122		O=C(Nc1ccc(CN2CCOCC2)cc1)c1sc2ncnc3c2c1NC(=O)N3c1ccc(Br)cc1 [Cpd 196, 5-(4-bromo-phenyl)-4-oxo-4,5-dihydro-3H-1-thia-3,5,6,8-tetraaza-acenaphthylene-2-carboxylic acid (4-morpholin-4-ylmethyl-phenyl)-amide]
39	175		O=C(Nc1ccc(CN2CCCCC2)cc1)c1sc2ncnc3c2c1NC(=O)N3c1cccc(Oc2ccccc2)c1 [Cpd 197, 4-oxo-5-(3-phenoxy-phenyl)-4,5-dihydro-3H-1-thia-3,5,6,8-tetraaza-acenaphthylene-2-carboxylic acid (4-piperidin-1-ylmethyl-phenyl)-amide]
155	613		CN1CCN(Cc2ccc(NC(=O)c3sc4ncnc5c4c3NC(=O)N5c3cccc(Oc4ccccc4)c3)cc2)CC1 [Cpd 199, 4-oxo-5-(3-phenoxy-phenyl)-4,5-dihydro-3H-1-thia-3,5,6,8-tetraaza-acenaphthylene-2-carboxylic acid [4-(4-methyl-piperazin-1-ylmethyl)-phenyl]-amide]
689	1440		O=C(Nc1ccc(CN2CCCCC2)cc1)c1sc2ncnc3c2c1NC(=O)N3c1ccc([S+]([O-])c2ccccc2)cc1 (stereo not shown) [Cpd 205, 5-(4-benzenesulfinyl-phenyl)-4-oxo-4,5-dihydro-3H-1-thia-3,5,6,8-tetraaza-acenaphthylene-2-carboxylic acid (4-piperidin-1-ylmethyl-phenyl)-amide]
101	72		O=C(Nc1ccc(CN2CCCCC2)cc1)c1sc2ncnc3c2c1NC(=O)N3c1ccc(Oc2cccnc2)c(Cl)c1 [Cpd 209, 5-[3-chloro-4-(pyridin-3-yloxy)-phenyl]-4-oxo-4,5-dihydro-3H-1-thia-3,5,6,8-tetraaza-acenaphthylene-2-carboxylic acid (4-piperidin-1-ylmethyl-phenyl)-amide]
615	> 10000		CCOC(=O)c1sc2ncnc3c2c1NC(=O)N3c1ccc(Sc2ccccc2)cc1 [Cpd 210, 4-oxo-5-(4-phenylsulfanyl-phenyl)-4,5-dihydro-3H-1-thia-3,5,6,8-tetraaza-acenaphthylene-2-carboxylic acid ethyl ester]
63	518		CN1CCC(NC(=O)c2sc3ncnc4c3c2NC(=O)N4c2ccc(Oc3ccccc3)cc2)CC1 [Cpd 211, 4-oxo-5-(4-phenoxy-phenyl)-4,5-dihydro-3H-1-thia-3,5,6,8-tetraaza-acenaphthylene-2-carboxylic acid (1-methyl-piperidin-4-yl)-amide]
1300	> 10000		CN1CCCN(C(=O)c2sc3ncnc4c3c2NC(=O)N4c2ccc(Oc3ccccc3)cc2)CC1 [Cpd 214, 2-(4-methyl-[1,4]diazepane-1-carbonyl)-5-(4-phenoxy-phenyl)-3H,5H-1-thia-3,5,6,8-tetraaza-acenaphthylen-4-one]
121	4460		CN1CCN(NC(=O)c2sc3ncnc4c3c2NC(=O)N4c2ccc(Oc3ccccc3)cc2)CC1 [Cpd 215, 4-oxo-5-(4-phenoxy-phenyl)-4,5-dihydro-3H-1-thia-3,5,6,8-tetraaza-acenaphthylene-2-carboxylic acid (4-methyl-piperazin-1-yl)-amide]
225	> 100000		O=C(NCCc1ccccn1)c1sc2ncnc3c2c1NC(=O)N3c1ccc(Oc2ccccc2)cc1 [Cpd 217, 4-oxo-5-(4-phenoxy-phenyl)-4,5-dihydro-3H-1-thia-3,5,6,8-tetraaza-acenaphthylene-2-carboxylic acid (2-pyridin-2-yl-ethyl)-amide]
